# Values quoted from earlier work in patent US11667615B2, “Certain (2S)-N-[(1S)-1-cyano-2-phenylethyl]-1,4-oxazepane-2-carboxamides as dipeptidyl peptidase 1 inhibitors” (AstraZeneca AB, priority 2014, dated 2023).
# Conditions: QWBA studies; concomitant ultra-structural changes by electron microscopy
smiles,measurement,value
CC(c1ccc(Cl)c(Cl)c1)N1N=C(N)CC1=O (stereo not shown) [muzolimine],retention in the aorta,retained selectively in the aorta
